Converted amounts (≈) assume the structure as drawn. Like-named read-outs stand apart in the source and are kept apart here.

Data set [1] can be described thus: Testosterone solubility by the increment method. In kind it is physicochemical. As to conditions: thermodynamic from solid. On the procedure: A known amount of solvent (2 mL) is stirred at 37° C. in a closed Erlenmeyer.
Data set [2] concerns sex hormone binding globulin, albumin. The conditions noted are these: cited from earlier work.
In data set [3] the target is T1, sex hormone binding globulin, albumin (Homo sapiens, UniProt P04278).
T1 sequence (P04278 30-402): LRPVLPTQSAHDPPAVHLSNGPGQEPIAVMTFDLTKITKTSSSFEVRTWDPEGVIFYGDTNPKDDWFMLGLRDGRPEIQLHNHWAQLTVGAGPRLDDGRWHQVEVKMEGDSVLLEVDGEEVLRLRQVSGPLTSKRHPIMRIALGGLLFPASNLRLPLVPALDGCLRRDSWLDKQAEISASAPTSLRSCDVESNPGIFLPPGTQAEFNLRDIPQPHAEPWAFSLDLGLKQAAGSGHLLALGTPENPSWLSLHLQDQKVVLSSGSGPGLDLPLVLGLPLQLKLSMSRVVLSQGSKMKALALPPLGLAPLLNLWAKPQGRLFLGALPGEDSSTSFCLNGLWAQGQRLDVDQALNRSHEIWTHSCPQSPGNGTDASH
The conditions noted are these: cited from earlier work.

The target in data set [4] is sex hormone binding globulin, albumin (Homo sapiens, UniProt P02768). The conditions noted are these: cited from earlier work.
Chain of sex hormone binding globulin, albumin (Homo sapiens, UniProt P02768) (P02768 25-609): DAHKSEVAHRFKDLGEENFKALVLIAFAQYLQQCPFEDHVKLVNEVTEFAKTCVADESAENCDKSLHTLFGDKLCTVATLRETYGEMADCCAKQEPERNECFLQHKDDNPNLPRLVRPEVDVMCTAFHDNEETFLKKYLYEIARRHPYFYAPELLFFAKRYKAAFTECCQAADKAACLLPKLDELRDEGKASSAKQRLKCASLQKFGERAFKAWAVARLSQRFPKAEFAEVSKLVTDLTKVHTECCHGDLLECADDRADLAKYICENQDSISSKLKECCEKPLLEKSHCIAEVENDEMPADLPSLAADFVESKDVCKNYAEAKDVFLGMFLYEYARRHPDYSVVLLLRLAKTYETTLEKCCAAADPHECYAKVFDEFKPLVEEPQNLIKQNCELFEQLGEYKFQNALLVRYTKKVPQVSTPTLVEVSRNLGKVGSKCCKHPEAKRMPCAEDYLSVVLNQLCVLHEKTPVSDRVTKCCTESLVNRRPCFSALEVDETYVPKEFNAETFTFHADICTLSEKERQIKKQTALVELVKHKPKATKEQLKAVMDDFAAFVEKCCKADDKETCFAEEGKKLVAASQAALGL

In general, solubility refers to the dissolved amount per volume that the medium holds. Consider `C[C@]12CC[C@H]3[C@@H](CCC4=CC(=O)CC[C@@]43C)[C@@H]1CC[C@@H]2O` [Testosterone], for which the solubility in data set [1] (aqueous with cosolvent or surfactant or cyclodextrin, water/ethanol mixture, 95% ethanol (v/v) 63/37, 37° C.) amounted to 30 mg/mL (≈ 104 mM); in data set [1] (aqueous with cosolvent or surfactant or cyclodextrin, water/ethanol mixture, 95% ethanol (v/v) 74/26, 37° C.), 52 mg/mL (≈ 180 mM); in data set [1] (aqueous with cosolvent or surfactant or cyclodextrin, water/ethanol mixture, 95% ethanol (v/v) 84/16, 37° C.) it was 120 mg/mL (≈ 416 mM); in data set [1] (aqueous with cosolvent or surfactant or cyclodextrin, water/ethanol mixture, 95% ethanol (v/v) 86/14, 37° C.) it was 160 mg/mL (≈ 555 mM); in data set [1] (oleic acid (OA) 100%, oil or lipid, solvent OA (100%), 37° C.), 66 mg/mL (≈ 229 mM); in data set [1] (organic solvent or mixture, solvent Transcutol (100%), 37° C.) it was 140 mg/mL (≈ 485 mM). For the same molecule, the solubility in data set [1] (organic solvent or mixture, water/ethanol mixture, 95% ethanol (v/v) 100/0, 37° C.) came out at 340 mg/mL (≈ 1180 mM); in data set [1] (propylene glycol (PG) 100%, organic solvent or mixture, solvent PG (100%), 37° C.), 86 mg/mL (≈ 298 mM); in data set [1] (propylene glycol dipelargonate (PGDP) 100%, oil or lipid, solvent PGDP (100%), 37° C.), 18 mg/mL (≈ 62.4 mM); in data set [1] (propylene glycol/oleic acid (PG/OA) 50/50, organic solvent or mixture, solvent PG/OA (50/50), 37° C.), 79 mg/mL (≈ 274 mM). The “bound to protein in the blood” value in data set [2] (men) and in data set [2] (women) was 98% each time. Also, the entries for the “share of the binding to sex hormone binding globulin” value in data set [3] (men) and in data set [3] (women) were “approximately 40%” and “approximately 66%”, respectively. Besides, the figures for the “share bound weakly to albumin” value in data set [4] (men) and in data set [4] (women) were 60% and 34%, respectively.

These data come from patent US20080038220A1 (LABORATOIRES BESINS INTERNATIONAL, priority 2004, published 2008).
